Holding throughout (format): cell-based
Assay [1] has as its system human acute myeloid leukemia cell line MOLM-13. Nature of the assay: Cytotoxicity, WST-1 and nuclear morphology (Example 73). The conditions noted are these: Homo sapiens. Put shortly: (§1)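 MOLM-13 (RPMI/FBS), NRK and H9c2 (DMEM/10% FBS) cells under 2% or 20% O2 at 37° C were exposed to analogues for 24 h (≤1% DMSO). Viability was read by WST-1, and cell death by Hoechst 33342 nuclear morphology; EC50 came from four-parameter regression.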
(Tetrazolium assays rely on reduction of a dye to a coloured formazan, in cell work by metabolically active cells.)

Assay [2] has as its system normal rat kidney epithelial (NRK) cells. The assay is described as above. The conditions noted are these: Rattus norvegicus. Put shortly:
as §1

For another assay, the system named is hepG2. Put plainly: Cytotoxicity (Example 73, Table 2). The conditions noted are these: Homo sapiens; hepG2, 24 hours of incubation; read-out: EC50 (μM) hepG2.
The subject of assay [3] is methicillin-resistant S. aureus MRSA A4-37. Put plainly: Microbroth dilution MIC. The conditions noted are these: compound alone. How it is done:
(§2) Day 1: • Plate bacterial strain(s) on appropriate media: • Gram-negative bacteria with ESBLs or carbapenemases: green agar plates with 100 mg/L ampicillin • Gram-negative bacteria without β-lactamases: green agar plates • Gram-positive bacteria (Staphylococci and Enterococci): blood agar plates • Incubate o.n. at 37° C.
(§3) Prepare the Bacterial Inoculum: • Prepare a 0.5 McFarland suspension of bacteria in 0.85% NaCl. (Should be used within 15 min of preparation). • Dilute the 0.5 McFarland suspension 1:100 into MH broth.
(§4) Check the inoculum by diluting the prepared bacterial suspension 1:100 (10 μl bacterial suspension+990 μl 0.85% NaCl). Plate 10 μl of the dilution on MH agar plates (×2). Incubate o.n. at 37° C., count the colonies and calculate the final CFU/ml inoculum in the plate by multiplying the average number of colonies with 10000 and divide by 2. The final inoculum should be between 3-7×10^5 CFU/ml. • Add 50 μl of the prepared bacterial suspension to each well in the microtiter plate except negative growth control.
(§5) Preparation of Compounds/Antibiotics • Calculate the desired concentration-range and volume of the compounds/antibiotics in the assay. For antibiotics this will depend on the MIC to meropenem of the bacterial strains to be tested. Dilute the stock solution in MH broth. Make subsequent 2-fold dilutions in MH broth of the desired concentrations if a concentration range is to be tested (remember the extra dilution factor in the assay plate). Always include extra volume for pipetting. Take into consideration stock solutions that are made in buffers that have an effect on bacterial growth (e.g. DMSO).
(§6) This experimental design was used for the results in Tables 4 and 5 below. In Table 4, inhibitor concentration dependency on the MIC of meropenem was studied.

In assay [4] the test system is vancomycin-resistant E. faecium vanA A1-22. Put plainly: Microbroth dilution MIC. The conditions noted are these: compound alone. How it is done: as §2, §3, §4, §5, §6
The subject of the next assay is Molm13 cells. Nature of the assay: Anti-AML activity, WST-1 viability (Example 72). The conditions noted are these: Homo sapiens, Molm 13 cells, WST-1. Put shortly: (§7)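 Rat IPC-81 cells in DMEM with 10% horse serum and Molm13 cells in RPMI with 10% FBS, seeded at 150 000 cells/ml with compound dilution series. After 22 h exposure, WST-1 added for a further 2 h; absorbance read at 450 nm (620 nm reference) as viability.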

The next assay concerns IPC-81 rat AML cells. Put plainly: Anti-AML activity, WST-1 viability (Example 72). The conditions noted are these: IPC81, IPC-81 cells. Put shortly: as §7

Read-outs that look alike come from different tables or passages of the source.

In the case of `COc1cccc2c1[n+]([O-])c1cccc(O)c1[n+]2O` [Example 5a, 1-hydroxy-6-methoxyphenazine 5.10-dioxide, reference compound], the half-maximal effective concentration (EC50) (usually the concentration that produces a half-maximal response) in assay [1] (MOLM-13, 2% O2, 24 hours of incubation, read-out: EC50 (μM) MOLM-13 2% O2) is 0.77 ± 0.13 µM; in assay [1] (MOLM-13, 19% O2, 24 hours of incubation, read-out: EC50 (μM) MOLM-13 19% O2), 1.4 ± 0.3 µM; in assay [2] (2% O2, 24 hours of incubation, read-out: EC50 (μM) NRK 2% O2), 76 ± 14 µM; in assay [2] (19% O2, 24 hours of incubation, read-out: EC50 (μM) NRK 19% O2) it was 77 ± 11 µM; in the assay with hepG2, 70 µM. Besides, the MIC A4-37 S. aureus MRSA in assay [3] was < 0.5 µg/mL. For the same compound, the MIC A1-22 E. faecium vanA in assay [4] is < 8 µg/mL. Besides, the IC50 (usually the concentration needed to halve the response being measured) with Molm13 cells (2% O2, 24 h of incubation, read-out: Molm 13 IC50 2% O2) was 1.1 µM; with Molm13 cells (20% O2, 24 h of incubation, read-out: Molm 13 IC50 20% O2) it was 1.4 µM; with IPC-81 rat AML cells (2% O2, 24 h of incubation, WST-1, read-out: IPC-81 IC50 2% O2), 3.2 µM; with IPC-81 rat AML cells (20% O2, 24 h of incubation, WST-1, read-out: IPC-81 IC50 20% O2) it was 2.4 µM.

These data come from US11958842B2, “Substituted phenazines and methods of treating cancer and bacterial diseases” (Adjutec Pharma AS, priority 2016, dated 2024).
